Experimental data reported in US12533377B2 (OXYMO TECHNOLOGIES INC., priority 2016, dated 2026).
Read-outs that look alike come from different tables or passages of the source. Marks after values point to notes of the source that are not given here.

Columns and labels:
[1] = tested on: chorioallantoic membrane of a fertilized hen egg; test: Ocular irritation test HET-CAM
Protocol: The ocular irritation test used was the substitution test HET-CAM (Hen's Egg Test—Chorioallantoic Membrane), published in the Official Journal dated 26 Dec. 1996. It is recommended by ICCVAM.
At 0.5, 2 and 5 mins post-contact, the three following criteria are observed and scored: hemorrhage, coagulation and hyperemia.

HSV-1 [2] = test: Model 1: Mixture 1 on cells infected with HSV-1, qPCR of viral genome in BHK-21; assay type: cell-based, Herpes simplex 1
Source text: (§1) Symp. Quant. […] Model 1:

HSV-1 [3] = test: Model 2: Mixture 1 on cells not yet infected with HSV-1, qPCR of viral genome in BHK-21; assay type: cell-based, Herpes simplex 1
Source text: as §1

HSV-1 [4] = test: Model 3: Mixture 1 on cells not yet infected and on free HSV-1, qPCR of viral genome in BHK-21; assay type: cell-based, Herpes simplex 1
Source text: as §1

HSV-1 [5] = test: Model 4: Mixture 1 on HSV-1 before infection, qPCR of viral genome in BHK-21; assay type: cell-based, Herpes simplex 1
Source text: as §1

BHK-21 line [6] = test: Model 1: cytotoxicity on the BHK-21 line, qPCR of 18S gene; assay type: cell-based; conditions: ACV 1 mg/L, 8 h post-contact of 2 mins
Source text: as §1

BHK-21 line [7] = test: Model 2: cytotoxicity on the BHK-21 line, qPCR of 18S gene; assay type: cell-based; conditions: ACV 1 mg/L, 8 h post-contact of 2 mins
Source text: as §1

BHK-21 line [8] = test: Model 3: cytotoxicity on the BHK-21 line, qPCR of 18S gene; assay type: cell-based; conditions: ACV 1 mg/L, 8 h post-contact of 2 mins
Source text: as §1

BHK-21 line [9] = test: Model 4: cytotoxicity on the BHK-21 line, qPCR of 18S gene; assay type: cell-based; conditions: ACV 10^3 mg/L, 8 h post-contact of 2 mins
Source text: as §1

[10] = tested on: immature erythrocytes (reticulocytes)
Protocol: The morbidity, the mortality, the weight of the animals and the clinical parameters (temperature, skin, hair, eyes, mucous membranes, secretions and excretions, respiratory and neurological function, gait and posture) were noted. 36 h to 48 h after the second treatment, the blood of the animals was collected and analyzed in flow cytometry (toxicity control: reduction of the proportion of immature erythrocytes (CD-71-positive). The proportion of micro-nucleated immature erythrocytes (reticulocytes) was evaluated on 4,000 observations per blood sample. Each rat population (n=10) for each tested substance represents 40,000 observations (Table 5).

[11] = control Line + (PBS + HSV), ACV 1 mg/L, 8 h post-contact of 2 mins
[12] = 100 mg/kg intraperitoneal, female
[13] = 100 mg/kg intraperitoneal, male
[14] = 150 mg/kg intraperitoneal, female
[15] = 150 mg/kg intraperitoneal, male

## CCCCCCCCCCCCOS(=O)(=O)[O-].[Na+] [1% SDS, sodium dodecyl sulfate]
[1]
  IS of the positive substances of reference: 10±2

## Nc1nc2c(ncn2COCCO)c(=O)[nH]1 [ACV, acyclovir]
HSV-1 [2]; contact 2 min, ACV 10^3 μg/L
  Reduction of the HSV-1 replication at t 8 h: −12%
HSV-1 [2]; [11]
  HSV (%), replication of HSV-1 by qPCR: 76 (1) %
HSV-1 [3]; contact 2 min, ACV 10^3 μg/L
  Reduction of the HSV-1 replication at t 8 h: −1%
HSV-1 [3]; [11]
  HSV (%), replication of HSV-1 by qPCR: 61 (1) %
HSV-1 [4]; contact 2 min, ACV 10^3 μg/L
  Reduction of the HSV-1 replication at t 8 h: −6%
HSV-1 [4]; [11]
  HSV (%), replication of HSV-1 by qPCR: 86 (1) %
HSV-1 [5]; contact 2 min, [ACV]: 1 g/L
  Reduction of the HSV-1 replication at t 8 h: −52^# %
HSV-1 [5]; control Line + (PBS + HSV), ACV 10^3 mg/L, 8 h post-contact of 2 mins
  HSV (%), replication of HSV-1 by qPCR: 54%
BHK-21 line [6]; control Line + (PBS + HSV)
  18S (%), multiplication of the BHK-21 line by qPCR: 118 (1) %
BHK-21 line [6]; control Line + (PBS − HSV)
  18S (%), multiplication of the BHK-21 line by qPCR: 108 (1) %
BHK-21 line [7]; control Line + (PBS + HSV)
  18S (%), multiplication of the BHK-21 line by qPCR: 62 (1) %
BHK-21 line [7]; control Line + (PBS − HSV)
  18S (%), multiplication of the BHK-21 line by qPCR: 57 (1) %
BHK-21 line [8]; control Line + (PBS + HSV)
  18S (%), multiplication of the BHK-21 line by qPCR: 92 (1) %
BHK-21 line [8]; control Line + (PBS − HSV)
  18S (%), multiplication of the BHK-21 line by qPCR: 111 (1) %
BHK-21 line [9]; control Line + (PBS + HSV)
  18S (%), multiplication of the BHK-21 line by qPCR: 111%
BHK-21 line [9]; control Line + (PBS − HSV)
  18S (%), multiplication of the BHK-21 line by qPCR: 97%

## O=P1(N(CCCl)CCCl)NCCCO1 (stereo not shown) [Cyclophosphamide, cyclophosphamide]
[10]; 5 mg/kg intravenous, female
  Micro-nucleated reticulocytes (%): 0.40 ± 0.13%
  Reticulocytes (%): 2.41 ± 0.54%
[10]; 5 mg/kg intravenous, male
  Micro-nucleated reticulocytes (%): 0.56 ± 0.17%
  Reticulocytes (%): 3.99 ± 0.49%
[10]; 10 mg/kg intravenous, female
  Micro-nucleated reticulocytes (%): 1.02 ± 0.26 %
  Reticulocytes (%): 1.30 ± 0.43%
[10]; 10 mg/kg intravenous, male
  Micro-nucleated reticulocytes (%): 1.62 ± 0.29%
  Reticulocytes (%): 1.95 ± 0.59%

## CCOS(C)(=O)=O [Methanesulfonate, ethyl methanesulfonate]
[10]; [12]
  Micro-nucleated reticulocytes (%): 0.48 ± 0.16 %
  Reticulocytes (%): 1.86 ± 0.25%
[10]; [13]
  Micro-nucleated reticulocytes (%): 0.68 ± 0.35 %
  Reticulocytes (%): 1.41 ± 0.32%
[10]; [14]
  Micro-nucleated reticulocytes (%): 0.59 ± 0.26 %
  Reticulocytes (%): 0.45 ± 0.33%
[10]; [15]
  Micro-nucleated reticulocytes (%): 0.81 ± 0.48 %
  Reticulocytes (%): 1.33 ± 0.34%

## [Na+].[OH-] [NaOH 0.1M, NaOH]
[1]
  IS of the positive substances of reference: 15±3
